We go through eleven compounds from US9233946B2, “Sulfonamide compounds” (KANCERA AB, priority 2010, dated 2016).

Structures are written as SMILES. Where two headings read alike, the source gives them in different places.

In assay [1] the test system is NUGC3 gastric tumor cell line. The assay is described as follows: Inhibition of cancer cell proliferation (Sulphorhodamine B total cellular protein). Format: cell-based, human. The settings on record: added at 0 h and again at 48 h, total of 120 h, FIG. 1. The protocol: To assess the antiproliferative response elicited by the compounds of the present invention in different tumour cell lines, total cellular protein in samples was quantified using the Sulphorhodamine B kit, TOX6, (Sigma-Aldrich).
Cells from selected tumour cell lines were cultured at 37° C., 5% CO2, normoxia, in DMEM/F12 medium +10% FBS. Cells were plated at a density of 6-12 000 cells/well, depending on cell-line specific size and growth characteristics, and allowed to attach overnight.
Culture media supernatants were then removed and replaced with either fresh medium or with compounds of the present invention diluted in cell culture medium to indicated concentrations, and to a maximal DMSO concentration of 0.1%. All treatments were in quadruplicate. After indicated incubation times, samples were washed with PBS and the total cellular protein in each sample was quantitated after precipitation with TCA according to the manufacturer's instructions. […] After air drying, bound dye was solubilized in 200 μL 10 mM Tris base, and the absorbance of dye was measured at a wavelength of 565 nm. To quantify growth, samples were collected also at t=0 h, and the resulting absorbance was set to 100%.
In brief, the Example 74 was added at the indicated concentrations at 0 h and again at 48 h. After a total of 120 h, the measured effect on cancer cell proliferation was quantified as described above.

The test system of the next assay is NUGC-3 cells. As to the kind of experiment: Quantification of F-2,6-P2 in NUGC-3 cells. Format: cell-based. The settings on record: Homo sapiens, read-out: IC50 based on quantification of F-2,6-P2. The source says: (§1) The relative kinase (formation) and phosphatase (degradation) activities of the bi-functional enzymes PFKFB3 and PFKFB4 control the intracellular levels of the regulator F-2,6-P2, which acts as an allosteric activator of glycolysis. The levels of F-2,6-P2 have been determined in three different cancer cell lines (MCF-7, PANC-1 and NUGC-3) using the van Shaftingen assay. The assay protocols described under “Methods for measurement of enzymatic activity of PFKFB3 and PFKFB4, Method A” have been adapted for the measurement of the inhibitory effect of compounds on the kinase activity of the various isoforms of the bifunctional enzyme (endogenously expressed) in the different cell lines. The modifications are described in the protocol below. All reagents were purchased from commercial sources or prepared inhouse.
Cell Line C (NUGC-3, Human Gastric Cancer Cell Line)
Cells were seeded at a concentration of 350 000 cells/mL in 100 μL growth medium (35 000 cells/well) […]
(§2) The amount of F-2,6-P2 was quantified based on the coupled enzymatic reaction described by Van Schaftingen. If necessary the samples were further diluted in 20 mM NaOH before quantification. Plates stored at −20° C. were thawed and the F-2,6-P2 quantification was initiated by transferring 40 μL from each well of the NUNC plate to the corresponding position in a trans-parent 96-well SpectraPlate-MB (6005649, PerkinElmer). […]

Another assay deals with PANC-1 cells. The assay is described as follows: Quantification of F-2,6-P2 in PANC-1 cells. Format: cell-based. The settings on record: Homo sapiens, PANC-1; read-out: IC50 based on quantification of F-2,6-P2.
Source text: as §1
Cell Line B (PANC-1, Human Pancreatic Carcinoma Cell Line)
• Cells: PANC-1 (ATCC-CRL-1469). Lot. no: 58564651. • Growth medium: Dulbecco's Modified Eagle's Medium, DMEM, ATCC-30-2002 10% FBS, Invitrogen, 10106-169
Cells were seeded at a concentration of 250 000 cells/mL in 100 μL growth medium (25 000 cells/well)
Starvation medium: DMEM/F12 without phenol red and glucose free, SVA, 991373 0.25% FBS, Invitrogen, 10106-169
Induction medium: DMEM/F12 without phenol red and glucose free, SVA, 991373 0.25% FBS, Invitrogen, 10106-169 (same as starvation medium)
Cells were seeded in 96-well Corning Costar tissue culture plates (CLS3595, Sigma-Aldrich) using the concentrations specified above for the three different cell lines A-C and incubated over night at 37° C. and 5% CO2. Row A was left empty. Next day the growth medium was discarded and replaced with 100 μL starvation medium. The plates were incubated for 18 h at 37° C. and 5% CO2. After 18 h of starvation the cells were induced with 100 μL compound or control solutions. Compounds were either tested in two concentrations (50 μM and 10 μM) or in dose response curves starting from 50 μM and the final DMSO concentration in assay plates was 0.5%. Also a dose response curve of a reference inhibitor was included in row H on each plate. All compounds were tested in duplicate plates. Compounds (in 96 well CLS 3365, Sigma-Aldrich) were serial diluted in DMSO from 10 mM compound DMSO stock solutions with Janus (automated liquid handling workstation from PerkinElmer). 5 μL were transferred to a Greiner deep well plate (736-0155, VWR) with 495 μL starvation medium. The final start concentration of compounds in the dilution plate was 100 μM, 1% DMSO. For compounds tested as single points, 10 mM compound solutions were diluted five fold in DMSO to 2 mM, followed by the transfer of 5 μL to separate dilution plates with 495 μL starvation medium. The final concentration of compounds in these dilution plates were 100 or 20 μM, respectively, and final concentration of DMSO was 1%. The plates were incubated at 37° C. and 5% CO2 for 1 h, followed by the addition of 10 μL 20 mM D-glucose in starvation medium. Controls, with and without 1 mM glucose, were included in row B. The final assay volume was 210 μL per well. After 2 h of incubation at 37° C. and 5% CO2, supernatants were discarded and the cells were lysed by the addition of 25 μL 250 mM NaOH. The plates were incubated at 37° C. and 5% CO2 for 5 min followed by an addition of 75 μL MilliQ dH2O. The supernatants were further diluted with 210 μL MilliQ dH2O to a final concentration of 20 mM NaOH. 200 μL were transferred to NUNC 96-well plates (7322661, VWR) and the plates were sealed and stored at −20° C. until analysis.
as §2

The test system of a further assay is MCF-7 cells. As to the kind of experiment: Quantification of F-2,6-P2 in MCF-7 cells. Format: cell-based. The settings on record: Homo sapiens.
Source text: as §1
Cell Line A (MCF-7, Human Breast Adenocarcinoma Cell Line)
• Cells: MCF-7(ATCC-HBT22). Lot. no: 58469417. • Growth Medium: • Eagle's Minimum Essential Medium (EMEM), Sigma-Aldrich #M5650, 500 ml • 10% FBS, Invitrogen, 10106-169 • 5 mL 200 mM L-glutamine, Invitrogen 25030024 • 5 mL 100 mM Sodium Pyruvate, Invitrogen 11360039 • 0.5 mL 10 mg/ml Bovine Insulin, Sigma-Aldrich 10516 […]
The amount of F-2,6-P2 was quantified based on the coupled enzymatic reaction described by Van Schaftingen. If necessary the samples were further diluted in 20 mM NaOH before quantification. […]

A further assay deals with PFKFB3 (Homo sapiens (Human), UniProt Q16875). The assay is described as follows: PFKFB3 kinase activity, Method B (ADP-Glo Kinase Assay). Format: biochemical. The source says: The PFKFB3 (placenta form) and PFKFB4 were produced and purified to homogeneity from E. coli at Biovitrum and at Sprint Bioscience. All other reagents were purchased from commercial sources. Two independent methods have been used for determination of the kinase activity of PFKFB3 (Method A and Method B). Method B has been used for determination of the kinase activity of PFKFB4.
Method B: The kinase activity of the bi-functional enzyme is readily quantified based on the production of ADP and F-2,6-P2 from ATP and F6P. The ADP is detected with a kit, ADP-Glo™ Kinase Assay^(a-e), from Promega. The assay is a luminescent ADP detection assay that measures kinase activity by quantifying the amount of ADP produced during the kinase reaction. The assay is performed in two steps; first, after the kinase reaction, an equal volume of ADP-Glo™ Reagent is added to terminate the kinase reaction and deplete the remaining ATP. Second, the Kinase Detection Reagent is added to simultaneously convert ADP to ATP and allow the newly synthesized ATP to be measured using a luciferase/luciferine reaction. The light generated is measured using a luminescence counter (1450 MicroBeta TriLux).
The assay was performed in white 384-well microtiter plates (OptiPlate, 6007299, PerkinElmer) by consecutive additions of 0.1 μL of a test compound solution (serial diluted in DMSO from compound DMSO stock solution and dispensed by acoustic dispensing from UV-star 384-well plate 7360153, VWR), 5 μL of enzyme solution and 5 μL of a substrate (fructose-6-phosphate (F6P) and adenosine-5′-triphosphate (ATP)) containing solution. […] Four reference dose response curves, one of them being the QC compound, were included in row O1-2, P1-2, and serial diluted as the test compounds. The final concentrations of all reagents in a total assay volume of 10.1 μL per well were: • 50 mM Tris-HCl at pH 8.0 • 10 mM MgCl2 • 5 mM Na2HPO4 at pH 8.0 • 81.48 nM PFKFB3 or 145 nM PFKFB4 • 8 μM ATP • 100 μM F6P (acid treated and then neutralized to remove any contaminating F-2,6-P2; see Van Schaftingen, 1984) • 0.005% Tween-20 • 1 mM dithiothreitol (DTT) • A test compound at various concentrations or controls (final DMSO concentration 0.99%)
Enzyme, compounds and controls were pre-incubated at room temperature for 15 min before the addition of substrate solution. The enzymatic reaction was allowed to proceed for 20 min (PFKFB3) or 40 min (PFKFB4) at room temperature. The reaction was terminated by the addition of 10 μL of ADP-Glo™ Reagent to all wells and the plate was incubated for 40 min at room temperature. After addition of 20 μL Kinase Detection Reagent to all wells the plate was incubated for 30 min at room temperature, followed by measurement in 1450 MicroBeta TriLux. All plates were centrifuged after each addition (room temperature, short spin, 500 RPM, Megafuge 1.0 Heraeus Instruments).
The inhibitory potency or IC50 values of test compounds on the kinase activity of PFKFB3 or PFKFB4 were calculated using a four-parameter model (model 205) in XLfit (IDBS ActivityBase XE Runner).
For orientation: ADP-Glo first removes unused ATP, then detects ADP through luciferase.

PFKFB3, sequence (Q16875 whole entry): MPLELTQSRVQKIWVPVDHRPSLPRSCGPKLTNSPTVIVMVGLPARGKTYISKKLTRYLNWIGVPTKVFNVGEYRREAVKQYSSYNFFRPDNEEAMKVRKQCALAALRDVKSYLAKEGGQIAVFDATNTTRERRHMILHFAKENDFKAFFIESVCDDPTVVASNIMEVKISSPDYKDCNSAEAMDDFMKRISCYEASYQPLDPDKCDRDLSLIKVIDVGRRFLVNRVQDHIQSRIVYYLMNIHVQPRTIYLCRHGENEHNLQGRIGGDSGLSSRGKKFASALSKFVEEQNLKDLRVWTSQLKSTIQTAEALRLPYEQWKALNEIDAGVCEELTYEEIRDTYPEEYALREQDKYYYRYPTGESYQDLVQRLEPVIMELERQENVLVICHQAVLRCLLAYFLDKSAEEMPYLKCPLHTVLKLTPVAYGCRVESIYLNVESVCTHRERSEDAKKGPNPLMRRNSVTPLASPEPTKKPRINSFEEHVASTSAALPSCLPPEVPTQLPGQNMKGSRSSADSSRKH

In general, IC50 refers to the point on the concentration scale where inhibition reaches its midpoint. In the case of `COC(=O)c1cccc(NS(=O)(=O)c2sc3ccc(Cl)cc3c2C)c1` [Example 74, Methyl 3-{[(5-chloro-3-methyl-1-benzothien-2-yl)sulfonyl]amino}benzoate], the “effect on cell proliferation” value in assay [1] was “growth-inhibitory effect”. For the same compound, the IC50 came to 4 µM in the assay with NUGC-3 cells and 3.7 µM in the assay on PANC-1 cells. In the case of `Cc1c(S(=O)(=O)Nc2cccc(-c3cnco3)c2)sc2ccc(Cl)cc12` [Example 141, 5-Chloro-3-methyl-N-[3-(1,3-oxazol-5-yl)phenyl]-1-benzothiophene-2-sulfonamide], in the assay on MCF-7 cells (MCF7, read-out: IC50 based on quantification of F-2,6-P2), the IC50 was found to be 3 µM. On to `O=S(=O)(Nc1cccc(-c2nnn[nH]2)c1)c1ccc(-c2cccc(C(F)(F)F)c2)s1` [Example 99, N-[3-(1H-Tetrazol-5-yl)phenyl]-5-[3-(trifluoromethyl)phenyl]thiophene-2-sulfonamide], for which half-maximal inhibition against PFKFB3 (IC50) required 1.42 µM. As for `COC(=O)c1cc(NS(=O)(=O)c2sc3ccc(Cl)cc3c2C)ccc1O` [Example 140, Methyl 5-{[(5-chloro-3-methyl-1-benzothiophen-2-yl)sulfonyl]amino}-2-hydroxybenzoate], in the assay with MCF-7 cells (MCF7, cells seeded in the starvation medium containing 25 mM glucose, 25 000 cells/well, read-out: IC50 based on quantification of F-2,6-P2), the IC50 was found to be 1.2 µM.

Turning to `O=S(=O)(Nc1cccc(-c2nnn[nH]2)c1)c1cc(Cl)c(Cl)cc1Cl` [Example 71, 2,4,5-Trichloro-N-[3-(1H-tetrazol-5-yl)phenyl]benzenesulfonamide], at PFKFB3, it took 2.39 µM to reach half-maximal inhibition (IC50). `O=S(=O)(Nc1cccc(-c2nnn[nH]2)c1)c1ccc(-c2ccc(Cl)c(Cl)c2)cc1` [Example 86, 3′,4′-Dichloro-N-[3-(1H-tetrazol-5-yl)phenyl]biphenyl-4-sulfonamide] returned a concentration for half-maximal inhibition (IC50) on PFKFB3 of 2.8 µM.

`O=C(O)c1cccc(NS(=O)(=O)c2cccc(-c3ccccc3)c2)c1` [Example 80, 3-[(Biphenyl-3-ylsulfonyl)amino]benzoic acid] came in with an IC50 against PFKFB3 of 3.1 µM.

Turning to `Cc1c(S(=O)(=O)Nc2cccc(-c3nnn[nH]3)c2)sc2ccccc12` [Example 39, 3-Methyl-N-[3-(1H-tetrazol-5-yl)phenyl]-1-benzothiophene-2-sulfonamide], the half-inhibitory concentration (IC50) against PFKFB3 was 0.28 µM.

`Cc1ccc2sc(S(=O)(=O)Nc3cccc(-c4nnn[nH]4)c3)c(C)c2c1` [Example 33, 3,5-Dimethyl-N-[3-(1H-tetrazol-5-yl)phenyl]-1-benzothiophene-2-sulfonamide] came in with an IC50 against PFKFB3 of 0.13 µM. On the same count and under the same terms, then `O=S(=O)(Nc1cccc(-c2nnn[nH]2)c1)c1ccc(Cl)c2nonc12` [Example 73, 7-Chloro-N-[3-(1H-tetrazol-5-yl)phenyl]-2,1,3-benzoxadiazole-4-sulfonamide], with 0.57 µM; and `CSc1nccc(-c2ccc(S(=O)(=O)Nc3cccc(C(=O)O)c3)s2)n1` [Example 61, 3-[[5-(2-Methylsulfanylpyrimidin-4-yl)-2-thienyl]sulfonylamino]benzoic acid], with 2.24 µM.
